In the supplement of paper PMC10307832:

Assays:
Test in all cases: relative viability (nuclei count vs DMSO), 5 days (fraction); higher = more cells survive
Adavosertib + Lapatinib = compound: C=CCn1c(=O)c2cnc(Nc3ccc(N4CCN(C)CC4)cc3)nc2n1-c1cccc(C(C)(C)O)n1 [Adavosertib] + CS(=O)(=O)CCNCc1ccc(-c2ccc3ncnc(Nc4ccc(OCc5cccc(F)c5)c(Cl)c4)c3c2)o1 [Lapatinib] (partner 2 µM)
Procedure, shortened: (§1)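 Lung cancer cell lines were pin-tool dosed in 1536-well plates on the day after seeding, with either a lone drug or a fixed anchor-drug dose plus five library-drug doses (not always all listed) in √10 steps. Nuclei were counted on 4× images after 5 days. Relative viability is the ratio of treated-well to vehicle-well nuclei counts, with each value a median of duplicate plates.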

Nelarabine + Alpelisib = compound: COc1nc(N)nc2c1ncn2[C@@H]1O[C@H](CO)[C@@H](O)[C@@H]1O [Nelarabine] + Cc1nc(NC(=O)N2CCC[C@H]2C(N)=O)sc1-c1ccnc(C(C)(C)C(F)(F)F)c1 [Alpelisib] (partner 2 µM)
Procedure, shortened: as §1

Nelarabine + Tozasertib = compound: COc1nc(N)nc2c1ncn2[C@@H]1O[C@H](CO)[C@@H](O)[C@@H]1O [Nelarabine] + Cc1cc(Nc2cc(N3CCN(C)CC3)nc(Sc3ccc(NC(=O)C4CC4)cc3)n2)n[nH]1 [Tozasertib] (partner 0.1 µM)
Procedure, shortened: as §1

Nelarabine + Olaparib = compound: COc1nc(N)nc2c1ncn2[C@@H]1O[C@H](CO)[C@@H](O)[C@@H]1O [Nelarabine] + O=C(c1cc(Cc2n[nH]c(=O)c3ccccc23)ccc1F)N1CCN(C(=O)C2CC2)CC1 [Olaparib] (partner 8 µM)
Procedure, shortened: as §1

Cell Line	relative viability (Adavosertib + Lapatinib; first compound 0.01 µM)	relative viability (Adavosertib + Lapatinib; first compound 0.03162 µM)	relative viability (Adavosertib + Lapatinib; first compound 0.1 µM)	relative viability (Adavosertib + Lapatinib; first compound 0.3162 µM)	relative viability (Nelarabine + Alpelisib; first compound 0.01 µM)	relative viability (Nelarabine + Alpelisib; first compound 0.03162 µM)	relative viability (Nelarabine + Alpelisib; first compound 0.1 µM)	relative viability (Nelarabine + Alpelisib; first compound 0.3162 µM)	relative viability (Nelarabine + Alpelisib; first compound 1 µM)	relative viability (Nelarabine + Tozasertib; first compound 0.01 µM)	relative viability (Nelarabine + Tozasertib; first compound 0.03162 µM)	relative viability (Nelarabine + Tozasertib; first compound 0.1 µM)	relative viability (Nelarabine + Tozasertib; first compound 0.3162 µM)	relative viability (Nelarabine + Tozasertib; first compound 1 µM)	relative viability (Nelarabine + Olaparib; first compound 0.01 µM)	relative viability (Nelarabine + Olaparib; first compound 0.03162 µM)	relative viability (Nelarabine + Olaparib; first compound 0.1 µM)	relative viability (Nelarabine + Olaparib; first compound 0.3162 µM)	relative viability (Nelarabine + Olaparib; first compound 1 µM)
HCC-827	0.198	0.2	0.215	0.191	0.999	0.848	0.839	0.784	0.595	0.499	0.423	0.446	0.366	0.476	0.673	0.622	0.571	0.571	0.463
A-427	1.01	1.02	1.07	0.999	0.851	1.06	1.11	1.07	1.05	0.181	0.204	0.169	0.175	0.181	0.796	0.818	0.812	0.803	0.704
NCI-H2009	0.975	0.99	1.05	0.926	1.25	1.32	1.15	1.2	1.14	0.893	0.748	0.742	0.812	0.752	0.746	0.607	0.834	0.725	0.855
EPLC-272H	0.745	0.958	0.844	0.739	0.986	0.932	1.03	0.926	0.808	0.219	0.2	0.287	0.295	0.253	1.13	0.881	0.646	0.842	0.769
LC-2-ad	0.964	0.954	0.991	0.906	0.959	0.825	0.937	0.734	0.928	0.464	0.418	0.414	0.468	0.439	0.748	0.39	0.668	0.753	0.701
HCC-366	1.09	1.07	1.08	1.13	0.468	0.267	0.308	0.517	0.47	0.0929	0.0947	0.0956	0.17	0.112	0.33	0.327	0.434	0.385	0.389
RERF-LC-KJ	0.915	0.826	0.89	0.825	0.944	0.889	0.909	0.861	1.09	0.558	0.483	0.456	0.5	0.513	0.946	1	1.11	0.987	0.852
EKVX	0.216	0.233	0.201	0.225	0.958	0.772	0.717	1.04	0.832	0.463	0.476	0.449	0.372	0.395	1.11	0.852	0.817	0.775	0.866
NCI-H1395	0.824	1.31	1.03	0.78	1.15	0.987	1	1.34	0.99	0.839	0.67	0.814	0.729	0.657	0.465	0.431	0.403	0.464	0.519
LOU-NH91	0.74	0.804	0.734	0.674	0.74	0.704	0.661	0.706	0.738	0.787	0.675	0.675	0.673	0.653	0.997	0.922	0.873	0.882	0.925
NCI-H647	1.23	1.08	1.08	0.727	1.2	0.705	1.12	1.56	1.19	0.347	0.207	0.387	0.24	0.247	0.57	0.498	0.633	0.541	0.647
NCI-H3122	1.01	0.924	1.07	1.07	0.898	0.569		0.881	0.761	0.547	0.403		0.434	0.534	0.668	0.607		0.745	0.661
NCI-H650	0.856	1.28	1.1	0.808	1.38	1.08	1	1.14	1.24	0.787	0.616	0.694	0.768	0.735	0.525	0.369	0.413	0.402	0.405
H3255	0.25	0.251	0.219	0.203	0.859	0.897	0.644	0.687	0.75		0.896	0.685	0.576	0.515	0.624	0.553	0.54	0.583	0.558
SW 1573	1.22	1.36	1.14	1.08	0.57	0.848	0.803	0.806	0.818	0.167	0.199	0.134	0.23	0.162	0.52	0.469	0.553	0.565	0.66
HCC-15	0.902	0.87	0.934	0.955	1.09	0.822	0.847	0.983	0.934	0.48	0.268	0.377	0.412	0.39	0.813	0.691	0.931	0.667	0.846
PC-3 [JPC-3]	0.445	0.418	0.47	0.429	1.14	0.993	1.06	1.05	0.986	1.02	0.747	0.934	0.891	0.899	1.46	1.2	1.1	1.25	1.22
